Reference: ChEMBL document CHEMBL1201862, “PubChem BioAssay data set” (2004)
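Cells were grown in 96-well plates and exposed to each compound for 48 hours at five concentrations; endpoints were interpolated linearly between bracketing concentrations, or set to the highest concentration if not reached. The concentration for 50% growth inhibition is given as GI50.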 Activity calls are given as the source filed them. Rule as the data show it: active = GI50 up to about 1.1 µM and inactive = higher.

Assays:
Assay in all cases: NCI-60 cell line screen, 48 h
A498 = test system: A498
EKVX = test system: EKVX
HCT-116 = test system: HCT-116
HOP-62 = test system: HOP-62
IGROV-1 = test system: IGROV-1
LOX IMVI = test system: LOX IMVI
MOLT-4 = test system: MOLT-4
Malme-3M = test system: Malme-3M
NCI-H23 = test system: NCI-H23
NCI-H522 = test system: NCI-H522
SF-268 = test system: SF-268
SK-MEL-5 = test system: SK-MEL-5
SK-OV-3 = test system: SK-OV-3
SR = test system: SR
SW-620 = test system: SW-620
UACC-257 = test system: UACC-257
UO-31 = test system: UO-31
RPMI-8226 = test system: RPMI-8226
NCI/ADR-RES = test system: NCI/ADR-RES

Question: `Cc1ccc(C2=Nc3ccccc3[S+]([O-])C(c3ccc4c(c3)OCO4)C2)cc1` (stereo unspecified) was tested. Which GI50 (A498) did it give?
Answer: 18.2 µM (inactive)

Question: What about the GI50 (EKVX) of the same compound?
Answer: 52 µM (inactive)

Question: And the GI50 (HCT-116)?
Answer: 16.6 µM (inactive)

Question: What about the GI50 (HOP-62) of the same compound?
Answer: 39.4 µM (inactive)

Question: What about the GI50 (IGROV-1) of the same compound?
Answer: 34.8 µM (inactive)

Question: What about the GI50 (LOX IMVI) of the same compound?
Answer: 15.9 µM (inactive)

Question: And the GI50 (MOLT-4)?
Answer: 23.9 µM (inactive)

Question: What about the GI50 (Malme-3M) of the same compound?
Answer: 33.8 µM (inactive)

Question: And the GI50 (NCI-H23)?
Answer: 15.3 µM (inactive)

Question: And the GI50 (NCI-H522)?
Answer: 18.3 µM (inactive)

Question: What about the GI50 (SF-268) of the same compound?
Answer: 19.5 µM (inactive)

Question: What about the GI50 (SK-MEL-5) of the same compound?
Answer: 15 µM (inactive)

Question: And the GI50 (SK-OV-3)?
Answer: 42.6 µM (inactive)

Question: What about the GI50 (SR) of the same compound?
Answer: 22.2 µM (inactive)

Question: What about the GI50 (SW-620) of the same compound?
Answer: 18.5 µM (inactive)

Question: What about the GI50 (UACC-257) of the same compound?
Answer: 29.7 µM (inactive)

Question: And the GI50 (UO-31)?
Answer: 40.8 µM (inactive)

Question: With `N#CCc1ccc(C(C#N)/C(CCCC(=O)Nc2cccc([N+](=O)[O-])c2)=N\NC(=O)NN)cc1` (stereo unspecified) as the compound, how does the GI50 (A498) read?
Answer: > 100 µM (inactive)

Question: And the GI50 (EKVX)?
Answer: > 100 µM (inactive)

Question: What about the GI50 (HCT-116) of the same compound?
Answer: > 100 µM (inactive)

Question: What about the GI50 (HOP-62) of the same compound?
Answer: > 100 µM (inactive)

Question: What about the GI50 (IGROV-1) of the same compound?
Answer: > 100 µM (inactive)

Question: What about the GI50 (MOLT-4) of the same compound?
Answer: > 100 µM (inactive)

Question: What about the GI50 (Malme-3M) of the same compound?
Answer: > 100 µM (inactive)

Question: What about the GI50 (NCI-H23) of the same compound?
Answer: > 100 µM (inactive)

Question: And the GI50 (NCI-H522)?
Answer: > 100 µM (inactive)

Question: What about the GI50 (RPMI-8226) of the same compound?
Answer: > 100 µM (inactive)

Question: What about the GI50 (SF-268) of the same compound?
Answer: > 100 µM (inactive)

Question: What about the GI50 (SK-MEL-5) of the same compound?
Answer: > 100 µM (inactive)

Question: And the GI50 (SK-OV-3)?
Answer: > 100 µM (inactive)

Question: And the GI50 (SR)?
Answer: > 100 µM (inactive)

Question: And the GI50 (SW-620)?
Answer: > 100 µM (inactive)

Question: And the GI50 (UACC-257)?
Answer: > 100 µM (inactive)

Question: And the GI50 (UO-31)?
Answer: > 100 µM (inactive)

Question: Which results are given for `O=C(/C=C\c1ccccc1O)c1ccc(O)cc1O`?
Answer: GI50 (A498): > 100 µM (inactive); GI50 (EKVX): > 100 µM (inactive); GI50 (HCT-116): > 100 µM (inactive); GI50 (HOP-62): > 100 µM (inactive); GI50 (IGROV-1): > 100 µM (inactive); GI50 (LOX IMVI): > 100 µM (inactive); GI50 (MOLT-4): > 100 µM (inactive); GI50 (Malme-3M): > 100 µM (inactive); GI50 (NCI-H23): > 100 µM (inactive); GI50 (NCI-H522): > 100 µM (inactive); GI50 (RPMI-8226): 62.8 µM (inactive); GI50 (SF-268): > 100 µM (inactive); GI50 (SK-MEL-5): > 100 µM (inactive); GI50 (SK-OV-3): > 100 µM (inactive); GI50 (SR): > 100 µM (inactive); GI50 (SW-620): 10.8 µM (inactive); GI50 (UACC-257): > 100 µM (inactive); GI50 (UO-31): > 100 µM (inactive)

Question: How did the GI50 (A498) turn out when `C=C=C(Sc1ccccc1)C(C)(C)O` was run?
Answer: > 100 µM (inactive)

Question: What about the GI50 (HCT-116) of the same compound?
Answer: > 100 µM (inactive)

Question: And the GI50 (IGROV-1)?
Answer: > 100 µM (inactive)

Question: And the GI50 (LOX IMVI)?
Answer: > 100 µM (inactive)

Question: What about the GI50 (MOLT-4) of the same compound?
Answer: > 100 µM (inactive)

Question: And the GI50 (Malme-3M)?
Answer: > 100 µM (inactive)

Question: And the GI50 (NCI-H23)?
Answer: > 100 µM (inactive)

Question: What about the GI50 (NCI-H522) of the same compound?
Answer: 0.399 µM (active)

Question: What about the GI50 (RPMI-8226) of the same compound?
Answer: > 100 µM (inactive)

Question: What about the GI50 (SF-268) of the same compound?
Answer: > 100 µM (inactive)

Question: What about the GI50 (SK-OV-3) of the same compound?
Answer: > 100 µM (inactive)

Question: What about the GI50 (SR) of the same compound?
Answer: > 100 µM (inactive)

Question: What about the GI50 (SW-620) of the same compound?
Answer: > 100 µM (inactive)

Question: And the GI50 (UACC-257)?
Answer: > 100 µM (inactive)

Question: And the GI50 (UO-31)?
Answer: > 100 µM (inactive)

Question: How did the GI50 (A498) turn out when `S=C1NCCN1C(=S)NC1CCCCC1` was run?
Answer: 18.8 µM (inactive)

Question: What about the GI50 (EKVX) of the same compound?
Answer: 29.1 µM (inactive)

Question: What about the GI50 (HCT-116) of the same compound?
Answer: 30.3 µM (inactive)

Question: What about the GI50 (HOP-62) of the same compound?
Answer: 37.6 µM (inactive)

Question: And the GI50 (IGROV-1)?
Answer: 68.1 µM (inactive)

Question: What about the GI50 (LOX IMVI) of the same compound?
Answer: 35.8 µM (inactive)

Question: And the GI50 (MOLT-4)?
Answer: 21.1 µM (inactive)

Question: What about the GI50 (Malme-3M) of the same compound?
Answer: 20.8 µM (inactive)

Question: And the GI50 (NCI-H23)?
Answer: 21.8 µM (inactive)

Question: What about the GI50 (NCI-H522) of the same compound?
Answer: 22.1 µM (inactive)

Question: And the GI50 (NCI/ADR-RES)?
Answer: 29.2 µM (inactive)

Question: And the GI50 (RPMI-8226)?
Answer: 30 µM (inactive)

Question: What about the GI50 (SF-268) of the same compound?
Answer: 34.7 µM (inactive)

Question: And the GI50 (SK-MEL-5)?
Answer: 22.2 µM (inactive)

Question: And the GI50 (SK-OV-3)?
Answer: 39.4 µM (inactive)

Question: And the GI50 (SR)?
Answer: 35.8 µM (inactive)

Question: What about the GI50 (SW-620) of the same compound?
Answer: 46 µM (inactive)

Question: And the GI50 (UACC-257)?
Answer: 26.2 µM (inactive)

Question: And the GI50 (UO-31)?
Answer: 26.7 µM (inactive)

Question: Which results are given for `Cc1occ2c1C(=O)CC1C2[C@@H](O)CC2C(C)(C)CCC[C@]12C` (stereo partly specified)?
Answer: GI50 (A498): > 100 µM (inactive); GI50 (EKVX): > 100 µM (inactive); GI50 (HCT-116): > 100 µM (inactive); GI50 (HOP-62): > 100 µM (inactive); GI50 (IGROV-1): > 100 µM (inactive); GI50 (MOLT-4): 40 µM (inactive); GI50 (Malme-3M): > 100 µM (inactive); GI50 (NCI-H23): > 100 µM (inactive); GI50 (NCI-H522): 56.5 µM (inactive); GI50 (RPMI-8226): 55.6 µM (inactive); GI50 (SF-268): > 100 µM (inactive); GI50 (SK-MEL-5): > 100 µM (inactive); GI50 (SK-OV-3): > 100 µM (inactive); GI50 (SR): 67.5 µM (inactive); GI50 (SW-620): > 100 µM (inactive); GI50 (UACC-257): > 100 µM (inactive); GI50 (UO-31): > 100 µM (inactive)

Question: `Nc1nncc2c1c(Br)cn2C1OC(CO)C(O)C1O` (stereo unspecified) was tested. Which GI50 (A498) did it give?
Answer: > 67.6 µM (inactive)

Question: And the GI50 (EKVX)?
Answer: 25.6 µM (inactive)

Question: And the GI50 (HCT-116)?
Answer: 9.68 µM (inactive)

Question: What about the GI50 (HOP-62) of the same compound?
Answer: 22 µM (inactive)

Question: And the GI50 (IGROV-1)?
Answer: 25.1 µM (inactive)

Question: What about the GI50 (LOX IMVI) of the same compound?
Answer: 5.74 µM (inactive)

Question: What about the GI50 (MOLT-4) of the same compound?
Answer: 2.91 µM (inactive)

Question: What about the GI50 (Malme-3M) of the same compound?
Answer: > 79.1 µM (inactive)

Question: And the GI50 (NCI-H23)?
Answer: 10.9 µM (inactive)

Question: And the GI50 (NCI-H522)?
Answer: 31.3 µM (inactive)

Question: What about the GI50 (RPMI-8226) of the same compound?
Answer: 10.2 µM (inactive)

Question: What about the GI50 (SF-268) of the same compound?
Answer: 35.1 µM (inactive)

Question: And the GI50 (SK-MEL-5)?
Answer: > 100 µM (inactive)

Question: And the GI50 (SK-OV-3)?
Answer: > 96.6 µM (inactive)

Question: And the GI50 (SR)?
Answer: 2.99 µM (inactive)

Question: What about the GI50 (SW-620) of the same compound?
Answer: 5.69 µM (inactive)

Question: What about the GI50 (UACC-257) of the same compound?
Answer: > 100 µM (inactive)

Question: What about the GI50 (UO-31) of the same compound?
Answer: > 37.9 µM (inactive)

Question: Which results are given for `CN(C)c1n/c(=N/c2ccc3ccccc3c2)ss1`?
Answer: GI50 (A498): 30.6 µM (inactive); GI50 (HCT-116): 13.8 µM (inactive); GI50 (HOP-62): 41.8 µM (inactive); GI50 (IGROV-1): 19 µM (inactive); GI50 (MOLT-4): 4.45 µM (inactive); GI50 (Malme-3M): 24.4 µM (inactive); GI50 (NCI-H522): 7.41 µM (inactive); GI50 (RPMI-8226): 6.9 µM (inactive); GI50 (SF-268): 33.7 µM (inactive); GI50 (SK-MEL-5): 11.1 µM (inactive); GI50 (SK-OV-3): 77.1 µM (inactive); GI50 (SR): 11.6 µM (inactive); GI50 (SW-620): 45.3 µM (inactive); GI50 (UACC-257): 16.5 µM (inactive); GI50 (UO-31): 23.4 µM (inactive)
